Measurements from article PMC12722308, “A phase 1 study of orally administered 5-fluoro-2’-deoxycytidine with tetrahydrouridine in patients with refractory solid tumors” (Cancer Chemotherapy and Pharmacology, 2025).
Where “and” joins values, the source holds several entries; their conditions need not be identical. Identical values can stand only once. Like-named read-outs stand apart in the source and are kept apart here.

Assays:
[1] = system: leukemias and myelodysplastic syndromes; parameters: method as in PMID 23671007; settings: specific indications of leukemias and myelodysplastic syndromes; cited from earlier work
[2] = cited from earlier work
[3] = Phase 1 dose escalation: adverse events (CTCAE v4.0), DLT, MTD/RP2D; type: in vivo, human; settings: orally once daily with 160 mg FdCyd on days 1–6 and 8–13 of each 21-day cycle (dose level 8)
Procedure: FdCyd and THU were supplied by the NCI Division of Cancer Treatment and Diagnosis. Patients were administered both drugs orally in 21-day cycles, and dose escalation proceeded according to a traditional 3 + 3 design as per the dose escalation schema shown in Supplementary Table S1. […] Patients maintained a study diary to note any side effects or concurrent medications. The NCI Common Terminology Criteria for Adverse Events version 4.0 was used to grade adverse events. Tumor response was assessed by radiography at baseline and every 2 cycles thereafter and evaluated per RECIST version 1.1 [11]. Following determination of the maximum tolerated dose (MTD)/recommended phase 2 dose (RP2D), an additional 13 patients were enrolled on a RP2D expansion cohort for assessments of pharmacodynamic biomarkers in baseline and on-treatment tumor biopsies.
DLTs were defined as toxicities that were at least possibly related to FdCyd or THU within the first cycle of treatment and met one of the following criteria: grade ≥ 3 non-hematological toxicity (including grade 3 nausea, vomiting, or diarrhea only if refractory to standard supportive care; grade 3 electrolyte toxicities only if unable to be corrected to ≤ grade 1 within 24 h; and tumor pain only if refractory to analgesics); grade 4 thrombocytopenia; or grade 4 neutropenia lasting ≥ 5 days or febrile neutropenia. […]

[4] = Urinary excretion by LC-MS/MS; type: in vivo, human; settings: geom. mean (geom. SD)
Procedure: (§1) Blood specimens for PK analysis were collected on Cycle 1 Day 1 (C1D1) prior to THU administration and then at 15, 30, and 45 min and 1, 2, 3, 4, 5, and 6 h after THU administration, as well as on C1D2 and C1D3 prior to and 2 h after THU administration. Urine specimens for PK analysis were collected on C1D1 prior to treatment and then at every void from 0 to 24 h after THU administration. All specimens for PK analysis were processed and analyzed by LC-MS/MS as described previously, and Phoenix WinNonlin software was used for data analysis.

[5] = Plasma pharmacokinetics by LC-MS/MS; type: in vivo, human; settings: for THU AUC0-6/Dose / THU Cl/F / THU Cmax/Dose / Tmax / Vd/F / half-life / AUC(0-inf) / Cmax / AUC(0-t) / concentration at 24 h / concentration at 48 h: geom. mean (geom. SD); for Tmax: read-out: THU Tmax; for Vd/F: read-out: THU Vz/F; for half-life: read-out: THU t½ (converted); for AUC(0-inf): read-out: THU AUC0-inf; for Cmax: read-out: THU Cmax; for AUC(0-t): read-out: THU AUC0-6; for concentration at 24 h: read-out: THU Cmin24h; for concentration at 48 h: read-out: THU Cmin48h
Procedure: as §1

[6] = parameters: method as in PMID 21576646; settings: oral administration, phase 1 study; cited from earlier work
[7] = DL1-DL9: THU 3000 mg oral once daily (n=44)
[8] = DL10-DL11: THU 6000 mg oral twice daily (n=11)
[9] = human, plasma, oral, Total, all dose levels (n=55)
[10] = human, plasma, po, 3000 mg, DL1-DL9: THU 3000 mg oral once daily (n=44)
[11] = human, plasma, po, 6000 mg, DL10-DL11: THU 6000 mg oral twice daily (n=11)
[12] = human, plasma, DL1-DL9: THU 3000 mg oral once daily (n=44)
[13] = human, plasma, DL10-DL11: THU 6000 mg oral twice daily (n=11)

Q: For `Nc1ncn([C@H]2C[C@H](O)[C@@H](CO)O2)c(=O)n1` [decitabine, 5-aza-2’deoxycytidine], which Response rates [1] is on record?
A: Its Response rates is over 50%.

Q: Which results are given for `O=C1NC(O)CCN1[C@@H]1O[C@H](CO)[C@@H](O)[C@H]1O` (stereo partly drawn) [THU, tetrahydrouridine]?
A: THU bioavailability, previously established [2]: 4.1%; THU clearance, previous values ([2]; intravenous THU, ref previous clearance values): 43 mL/min/m^2; Maximum tolerated dose / RP2D, THU dose [3]: 3000 mg; THU urinary excretion over 0-24 hours of day 1 ([4]; All FdCyd doses + THU 3000 mg, N=42): 2.1 (2.0) % dose; THU urinary excretion over 0-24 hours of day 1 ([4]; All FdCyd doses + THU 6000 mg, N=10): 1.2 (2.5) % dose; THU urinary excretion over 0-24 hours of day 1 ([4]; DL1: FdCyd 30 mg + THU 3000 mg, N=3): 2.9 (2.0) % dose; THU urinary excretion over 0-24 hours of day 1 ([4]; DL2: FdCyd 60 mg + THU 3000 mg, N=3): 2.8 (1.6) % dose; THU urinary excretion over 0-24 hours of day 1 ([4]; DL3: FdCyd 90 mg + THU 3000 mg, N=3): 2.1 (1.4) % dose; THU urinary excretion over 0-24 hours of day 1 ([4]; DL4: FdCyd 120 mg + THU 3000 mg, N=3): 1.1 (4.8) % dose; THU urinary excretion over 0-24 hours of day 1 ([4]; DL5-9: FdCyd 160 mg + THU 3000 mg, N=30): 2.1 (1.8) % dose; THU urinary excretion over 0-24 hours of day 1 ([4]; DL10: FdCyd 60 mg + THU 6000 mg, N=7): 1.1 (2.9) % dose; THU urinary excretion over 0-24 hours of day 1 ([4]; DL11: FdCyd 80 mg + THU 6000 mg, N=3): 1.6 (1.7) % dose; THU urinary excretion over 0-24 hours of day 1 ([4]; Total, all dose levels, N=52): 1.9 (2.1) % dose; THU exposure in patients who experienced a DLT vs those who did not ([5]; AUC0−6 P = 0.007, Cmax P = 0.005, C24h P = 0.002, C48h P = 0.004): significantly higher THU exposures; THU AUC0-6/Dose [5, 7]: 2.25 (1.63) µg/L•h / mg; THU Cl/F [5, 7]: 142 L/h and 142 (1.8) L/h; THU Cmax/Dose [5, 7]: 505 (1.7) µg/L / g; THU AUC0-6/Dose [5, 8]: 1.79 (1.37) µg/L•h / mg; THU Cl/F [5, 8]: 190 (1.6) L/h; THU Cmax/Dose [5, 8]: 390 (1.4) µg/L / g; Increase in THU 24 and 48 h trough concentrations ([5]; THU 6000 mg twice daily vs 3000 mg once daily, expected 4-fold): ~10 fold; THU AUC0-6/Dose ([5]; Total, all dose levels (n=55)): 2.15 (1.60) µg/L•h / mg; THU Cl/F ([5]; Total, all dose levels (n=55)): 147 (1.7) L/h; THU Cmax/Dose ([5]; Total, all dose levels (n=55)): 480 (1.6) µg/L / g; THU plasma concentrations for the oral RP2D compared with the intravenous RP2D of 350 mg/m^2 THU ([5]; comparison with ref 8): 9–13 % lower; Tmax [5, 9]: ~3 h; Vd/F [5, 9]: 1830 L; half-life [5, 9]: 8.7 h; bioavailability ([5]; human, plasma, oral, from previous clearance (43 mL/min/m^2) vs current Cl/F (142 L/h), read-out: THU bioavailability in the current study): ~3%; AUC(0-inf) [5, 10]: 21100 ng·h/mL; Cmax [5, 10]: 1520 ng/mL; Tmax [5, 10]: 3 h; Vd/F [5, 10]: 1810 L; half-life [5, 10]: 8.8 h; AUC(0-inf) [5, 11]: 31600 ng·h/mL; Cmax [5, 11]: 2340 ng/mL; Tmax [5, 11]: 3.2 h; Vd/F [5, 11]: 2040 L; half-life ([5]; human, plasma, po, 6000 mg, DL10-DL11: THU 6000 mg oral twice daily, half-life determined for only 6 patients): 7.4 h; AUC(0-t) [5, 12]: 6750 ng·h/mL; concentration at 24 h [5, 12]: 260 ng/mL; concentration at 48 h [5, 12]: 330 ng/mL; AUC(0-t) [5, 13]: 10800 ng·h/mL; concentration at 24 h [5, 13]: 2520 ng/mL; concentration at 48 h [5, 13]: 3170 ng/mL

Q: Which Response rates [1] does the source give for `Nc1ncn([C@@H]2O[C@H](CO)[C@@H](O)[C@H]2O)c(=O)n1` [azacytidine] here?
A: Its Response rates is over 50%.

Q: And the “Most common grade 3/4 toxicity and dose-limiting toxicity” value [6]?
A: Its value is “diarrhea”.
